Data as given in PMC10545747, “Development of cyclopeptide inhibitors of cGAS targeting protein-DNA interaction and phase separation” (Nature Communications, 2023).
Where “and” joins values, the source holds several entries; their conditions need not be identical. Identical values can stand only once. Entries after “also recorded” stand apart in the source; their conditions may differ. Square brackets hold non-standard residues; d marks the D form. Peptide text beside a SMILES is read from it.

What was measured:
[1] = target: T1, truncated cGAS (hcGAS-ΔN, residues 147–522) (Homo sapiens, UniProt Q8N884); test: Surface plasmon resonance (SPR); type: binding
T1 construct: N-terminally truncated human cGAS (hcGAS-ΔN, residues 147–522); 6xHis-SUMO (N, cleaved yes); made in house; host or cells: Escherichia coli BL21 (DE3)
Experimental: (§1) All SPR binding studies were performed with a Biacore 8 K instrument (GE Healthcare Life Sciences). hcGAS-FL / hcGAS-ΔN (1 mg mL^−1) was immobilized in a CM5 chip by EDC/NHS method. The tested peptide was diluted with running buffer (20 mM HEPES, pH 7.5, 125 mM KCl,10 mM MgCl2). All the samples contained the same concentration of DMSO (0.5%). The tested peptide was injected at a flow rate of 30 μL min^−1 for 200 s of association, followed by 200 s of disassociation at 25 °C. The final graphs were obtained by subtracting blank sensorgrams. The data were analyzed with Biacore Insight Evaluation software.

[2] = target: T2, full-length human cGAS (hcGAS-FL) (Homo sapiens, UniProt Q8N884); test: Surface plasmon resonance (SPR); type: binding
T2 construct: The gene encoding full-length human cGAS (hcGAS-FL); 6xHis-SUMO (N, cleaved yes); made in house; host or cells: Escherichia coli BL21 (DE3)
Experimental: as §1

hcGAS-FL (D191R) mutant = target: T3, hcGAS-FL (D191R) mutant (Homo sapiens, UniProt Q8N884, D191R); test: Surface plasmon resonance (SPR); type: binding
T3 construct: The gene encoding full-length human cGAS (hcGAS-FL); 6xHis-SUMO (N, cleaved yes); made in house; host or cells: Escherichia coli BL21 (DE3)
Experimental: as §1
Supplementary Fig. 5. The binding site of XQ2 may locate at the cGAS-dsDNA interface. (a) The 2D schematic of docked structure of XQ2 with cGAS (PDB ID: 4O69). (b) Structure activity relationship (SAR) analysis of XQ2 a nd its analogues based on the docked structure of the peptides with cGAS. (c) FAM-ISD (40nM) was incubated with the indicated doses of hcGAS-FL or hcGAS-FL (D191R) mutant, and the polarization signal was detected by a microplate reader. (d) SPR analysis of the binding of hcGAS-FL (D191R) mutant with XQ2. The binding affinity (Kd) […]
Data are representative of three independent experiments in (c). (Data […]
Source data are provided as a Source Data file.
XQ- Sequence Inhibition % […]

Trex1^-/- mice = Trex1^-/- mice model of autoimmune disease (survival, H&E, heart qPCR, antinuclear antibody); type: in vivo, mouse; set-up: Score per animal, Heart (Fig. 7d) / Score per animal, Stomach (Fig. 7d) / Score per animal, Tongue (Fig. 7d) / Score per animal, Kidney (Fig. 7d) / Score per animal, Muscle (Fig. 7d): scale not given here; Ifnb1 mRNA level (Fig. 7e) / Cxcl10 mRNA level (Fig. 7e) / Il6 mRNA level (Fig. 7e): unit not given here
Description: Aberrant accumulation of cytosolic self-dsDNA caused by loss-of-function mutations in Trex1 leads to overactivation of cGAS-STING pathway, which is associated with autoinflammatory diseases. To evaluate whether the optimized analogue XQ2B inhibits the overactivation of cGAS-STING pathway due to Trex1 deficiency, we first tested the effects of XQ2B on the expression of Ifnb1, Cxcl10 and Il6 in BMDMs harvested from Trex1^-/- mice (Supplementary Fig. 9a, b). […] We next evaluated the anti-inflammatory effect of XQ2B in Trex1^-/- mice. XQ2B (10 mg/kg) was intravenously injected into mice every other day. Six animals from each group were sacrificed on day seven to assess tissue pathology, and the rest (10 mice per group) were used to analyze survival for up to 11 days (Fig. 7b). […] Mice were killed and tissues were collected on day seven for histology and mRNA analysis.
C57BL/6 6–8 weeks old wild type (WT) mice were purchased from Gempharmatech. C57BL/6 Trex1^+/- mice were purchased from Cyagen. Trex1^-/- mice were generated by further mating the male and female Trex1^+/- mice, and 8-week-old male Trex1^-/- mice were used in the experiment. Mice were housed in groups of up to 5 mice/cage at 18 °C − 24 °C ambient temperatures with 40–60% humidity. Mice were maintained on a 12 h light/ dark cycle 6 am to 6 pm. Food and water were available ad libitum. Femurs and tibias were removed from sex-matched mice of 6–8 weeks old, and the ends were clipped. Marrow was pushed from bones by using a syringe, and cell clumps were broken apart into cell particles by pipetting in PBS, and passed through a 70 μm cell strainer. Cells were resuspended in red blood cell lysis buffer (Solarbio) for 5 min after being centrifuged with 200 × g for 5 min, and were resuspended in cell culture media (DMEM) with an additional M-CSF (50 ng/ml) after centrifugation, and then were seeded into a 12-well plate. Half of the cell culture media was replaced with a fresh medium on the third day, and performed a complete media change on the fifth day. BMDMs were used for subsequent experiments after the seventh day. All the animal experiments in these studies were approved and overseen by the ethics committee of the Laboratory Animal Center of Peking University Shenzhen Graduate School in accordance with the Policy on the Care, Welfare, and Treatment of Laboratory Animals. The assigned approval or accreditation number is AP0020005.
Tissues were resected and fixed successively in 4% paraformaldehyde, and embedded in paraffin according to the standard procedure, and then sectioned into 10-μm slices and placed on positively charged microscope slides. Sections of the brain were subjected to immunohistochemical (IHC) staining with an anti-HSV-1 antibody (Abcam, 1:100) and HRP-conjugated anti-rabbit IgG antibody (Cell Signaling, Cat# 7074, 1:200) according to standard procedures. Sections of the heart, stomach, tongue, kidney and muscle were stained with hematoxylin and eosin. Tissue sections were visualized using an Olympus IX73 microscope (20× Objective).
Anti-nuclear antibodies were performed with 1:160 diluted sera by using a FLUORO HEPANA TEST kit (MBL BEIJING BIOTECH) according to the manufacturer’s protocols.

[3] = 10 mg/kg i.v. every other day, day seven

T2 sequence (Q8N884 whole entry): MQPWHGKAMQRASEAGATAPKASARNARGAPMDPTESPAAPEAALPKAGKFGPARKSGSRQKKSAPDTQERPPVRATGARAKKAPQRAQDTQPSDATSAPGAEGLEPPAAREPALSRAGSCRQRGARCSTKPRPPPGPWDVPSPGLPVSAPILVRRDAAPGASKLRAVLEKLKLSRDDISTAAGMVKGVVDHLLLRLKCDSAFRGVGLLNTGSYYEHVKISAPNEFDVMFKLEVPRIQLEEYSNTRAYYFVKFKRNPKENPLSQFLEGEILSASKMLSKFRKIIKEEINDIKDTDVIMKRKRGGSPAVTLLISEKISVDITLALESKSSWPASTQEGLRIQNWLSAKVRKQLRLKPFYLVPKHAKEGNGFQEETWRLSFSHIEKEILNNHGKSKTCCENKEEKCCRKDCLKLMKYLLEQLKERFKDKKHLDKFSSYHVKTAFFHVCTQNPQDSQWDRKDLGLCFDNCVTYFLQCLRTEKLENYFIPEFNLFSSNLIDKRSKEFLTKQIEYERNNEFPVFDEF
T1 sequence (Q8N884 147-522, stated change not applied): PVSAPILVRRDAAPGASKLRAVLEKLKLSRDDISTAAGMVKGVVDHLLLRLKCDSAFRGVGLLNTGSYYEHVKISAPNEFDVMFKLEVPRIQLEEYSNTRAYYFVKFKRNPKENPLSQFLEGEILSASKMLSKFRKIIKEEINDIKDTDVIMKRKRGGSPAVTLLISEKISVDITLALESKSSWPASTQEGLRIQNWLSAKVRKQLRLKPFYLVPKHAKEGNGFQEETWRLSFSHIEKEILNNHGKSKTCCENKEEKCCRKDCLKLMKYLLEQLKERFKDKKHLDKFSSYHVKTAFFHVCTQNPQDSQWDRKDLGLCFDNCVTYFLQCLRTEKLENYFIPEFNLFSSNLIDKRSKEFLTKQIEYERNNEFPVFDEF
T3 sequence (Q8N884 whole entry D191R): as the sequence (Q8N884 whole entry) above, with D191R counted along it

For `CC(C)C[C@@H]1NC(=O)[C@H](CCCNC(=N)N)NC(=O)[C@H](C(C)C)NC(=O)[C@@H]2CCCN2C(=O)[C@@H](Cc2ccccc2)NC(=O)[C@H](CC(C)C)NC(=O)[C@H](CCCNC(=N)N)NC(=O)[C@H](C(C)C)NC(=O)[C@H](C)NC(=O)[C@@H](Cc2ccccc2)NC1=O` [XQ2, Cyclo (LfAVRLfPVR)] (cyclo(L[dF]AVRL[dF]PVR)), which “Response (RU), SPR, Fig. S4b” value ([1]; XQ2 2.5 μM) is on record?
The value was 32.0968 RU.

And the “Response (RU), SPR, Fig. S4b” value ([1]; XQ2 5 μM)?
The value was 115.953 RU.

What about the “Response (RU), SPR, Fig. S4b” value ([1]; XQ2 10 μM) of the same compound?
Its value is 275.186 RU.

And the Kd ([1]; hcGAS-ΔN, Fig. S4b)?
The Kd was 86.5 ± 76.2 µM.

What about the “Response (RU), SPR, Fig. 3a” value ([2]; XQ2 2.5 μM) of the same compound?
Its value is 57.4165 RU.

And the “Response (RU), SPR, Fig. 3a” value ([2]; XQ2 5 μM)?
The value was 140.669 RU.

And the “Response (RU), SPR, Fig. 3a” value ([2]; XQ2 10 μM)?
Its value is 252.736 RU.

And the Kd ([2]; hcGAS-FL, one-to-one binding model, ± 95% CI)?
The Kd was 35.9 µM and ~35 µM.

What about the “binding to hcGAS-FL (D191R), SPR” value (hcGAS-FL (D191R) mutant) of the same compound?
Its value is “markedly reduced the binding affinity of XQ2 with cGAS; also recorded: could not be determined by saturation binding”.

How did the “serum level of antinuclear antibody” value (Trex1^-/- mice; 10 mg/kg i.v. every other day) turn out when `CC(C)C[C@@H]1NC(=O)[C@H](CCCNC(=N)N)NC(=O)[C@H](C(C)C)NC(=O)[C@@H]2CCCN2C(=O)[C@@H](Cc2ccccc2)NC(=O)[C@H](CC(C)C)NC(=O)[C@H](CCCNC(=N)N)NC(=O)[C@H]([C@@H](C)O)NC(=O)[C@H](C)NC(=O)[C@@H](Cc2ccccc2)NC1=O` [XQ2B] (cyclo([dF]ATRL[dF]PVRL)) was run?
Its value is “markedly reduced by XQ2B treatment”.

And the “heart Ifnb1, Cxcl10 and Il6 mRNA” value (Trex1^-/- mice; [3])?
The value was “significantly suppressed the mRNA level of Ifnb1, Cxcl10 and Il6 caused by Trex1 deficiency”.

What about the “tissue inflammation, H&E” value (Trex1^-/- mice; [3]) of the same compound?
The value was “ameliorates rather than reverses the systemic inflammation in Trex1-/- mice; also recorded: significantly attenuated the inflammation”.

What about the “survival of Trex1^-/- mice” value (Trex1^-/- mice; 10 mg/kg i.v. every other day, up to 11 days, n = 10, 3 of 10 untreated died) of the same compound?
The value was “none of the 10 mice treated with XQ2B died during treatment”.

What about the “Score per animal, Heart (Fig. 7d)” value (Trex1^-/- mice; KO(XQ2B)) of the same compound?
The value was 5 (2×) and 8 (2×) and 6 and 4 and 7 and 9.

And the “Score per animal, Kidney (Fig. 7d)” value (Trex1^-/- mice; KO(XQ2B))?
Its value is 3 (2×) and 6 and 5 (2×) and 2 and 4 and 7.

And the “Score per animal, Muscle (Fig. 7d)” value (Trex1^-/- mice; KO(XQ2B))?
The value was 4 (3×) and 2 and 6 and 3 (2×) and 5.

What about the “Score per animal, Stomach (Fig. 7d)” value (Trex1^-/- mice; KO(XQ2B)) of the same compound?
The value was 3 and 8 (2×) and 6 and 9 and 5 (2×) and 7.

And the “Score per animal, Tongue (Fig. 7d)” value (Trex1^-/- mice; KO(XQ2B))?
The value was 3 and 7 (2×) and 8 and 5 (2×) and 6 and 4.

What about the “Cxcl10 mRNA level (Fig. 7e)” value (Trex1^-/- mice; Trex1 KO+XQ2B, per animal) of the same compound?
Its value is 99.6532 and 144.536 and 126.503 and 174.75 and 186.166.

And the “Ifnb1 mRNA level (Fig. 7e)” value (Trex1^-/- mice; Trex1 KO+XQ2B, per animal)?
The value was 12.3782 and 6.326 and 6.444 and 5.852 and 6.524.

And the “Il6 mRNA level (Fig. 7e)” value (Trex1^-/- mice; Trex1 KO+XQ2B, per animal)?
Its value is 3.8548 and 4.605 and 4.215 and 10.789 and 5.351.
